Experimental data from patent US20140163096A1, “METHODS AND COMPOSITIONS FOR TREATING HIV-ASSOCIATED DIARRHEA” (priority 2012, published 2014).

Assays:
[1] = human, in vivo; cited from earlier work
rat bone marrow = conditions: in vivo
[2] = Bacterial reverse mutation assay
mice = test: 13-week oral toxicity study in mice; conditions: mouse, in vivo
Protocol: One additional group of 15 animals/sex served as the control and received the vehicle, purified water.
Observations for morbidity, mortality, injury, and the availability of food and water were conducted twice daily for all animals. Detailed clinical observations for clinical signs were conducted weekly on all main study animals. Body weights were measured and recorded weekly on all animals. Food consumption was measured and recorded weekly on all main study animals. Ophthalmoscopic examinations were conducted pretest and prior to necropsy for all main study animals. Blood samples for clinical pathology evaluations were collected from main study animals in extremis and at termination. […] Beginning on Day 7, a limited gross necropsy examination was performed on any TK animal euthanized in extremis or found dead in an effort to determine the cause of death.

HIV-positive patients = conditions: human, in vivo

Substance: Crofelemer
- systemic bioavailability [1]: virtually no systemic bioavailability
- rat bone marrow micronucleus assay result (rat bone marrow): negative
- bacterial reverse mutation assay result [2]: negative
- clinical pathology, organ weight, and macroscopic effects (mice): observed in both sexes at 1200 mg/kg/day
- food consumption effects (mice): evident at 40 mg/kg/day in females and ≧400 mg/kg/day in both sexes
- adverse events reported in greater than or equal to 1% and less than 2% of patients, at a higher incidence than placebo (HIV-positive patients): dizziness, muscle spasms, myalgia, and pain in extremity
- adverse reactions in patients who received doses greater than 250 mg daily (HIV-positive patients): similar
- safety profile by baseline CD4 cell count (HIV-positive patients): similar
